Assay results: US6989448B2, “Heteroaryl alkyl alpha substituted peptidylamine calcium channel blockers” (priority 1998, dated 2006)
Where a name gives a salt, the structure may show the parent alone.

Tests used:
[1] = test system: DBA/2 mice; test: Audiogenic (sound-induced) seizure test in DBA/2 mice, protection from tonic seizures; format: in vivo; details: 30 mg/kg, intravenous, tested 15 or 45 minutes after injection
Experimental: In Vivo Biological Protocol
A compound of the present invention was dissolved in water using 10% (weight/volume) Emulphor (GAF Corp., Wayne, N.J.) surfactant. Substances were administered by intravenous injection into the retro-orbital venous sinus. All testing was performed 15 minutes or 45 minutes after drug injection. All the male mice, 3 to 4 weeks old, were obtained from Jackson Laboratories, Bar Harbour, Me. Immediately before anticonvulsant testing, mice were placed upon a wire mesh, 4 inches square suspended from a steel rod. The square was slowly inverted through 180 degree and mice observed for 30 seconds. Any mouse falling from the wire mesh was scored as ataxia.
Mice were placed into an enclosed acrylic plastic chamber (21 cm height, approximately 30 cm diameter) with a high-frequency speaker (4 cm diameter) in the center of the top lid. An audio signal generator (Protek Model B-810) was used to produce a continuous sinusoidal tone that was swept linearly in frequency between 8 kHz and 16 kHz once each 10 msec. The average sound pressure level (SPL) during stimulation was approximately 100 dB at the floor of the chamber. Mice were placed within the chamber and allowed to acclimatize for 1 minute. DBA/2 mice in the vehicle-treated group responded to the sound stimulus (applied until tonic extension occurred, or for a maximum of 60 sec) with a characteristic seizure sequence consisting of wild running followed by clonic seizures, and later by tonic extension, and finally by respiratory arrest and death in 80% or more of the mice. In vehicle-treated mice, the entire sequence of seizures to respiratory arrest lasts approximately 15 to 20 seconds.
The incidence of all the seizure phases in the drug-treated and vehicle-treated mice was recorded, and the occurrence of tonic seizures were used for calculating anticonvulsant ED50 values by probit analysis. Mice were used only once for testing at each time and dose point.

[2] = target: T1, N-type Ca2+ channel (Homo sapiens, UniProt Q00975); test: Measurement of N-type Ca2+ channel blocking potencies in IMR-32 cells using the fluorescent Ca2+ indicator Indo-1; format: cell-based; details: for IC50: K+-stimulated Ca2+ flux, 5 μM nitrendipine to block L-type channels, some values marked (est.); for IMR-32 % of Blockade @ μM: 5 μM nitrendipine
T1 construct: host or cells: IMR-32 cells, differentiated with dibutyryl cAMP and bromodeoxyuridine
Experimental: Measurement of N-type Ca^2+ Channel Blocking Potencies of Compounds in IMR-32 Cells Using the Fluorescent Ca^2+ Indicator Indo-1
IMR-32 cells are a human tumoral cell line of neural origin. […] Calcium flux into these cells may be induced by stimulation with elevated potassium concentrations. The L-channel component of calcium flux may be blocked by adding 5 μM nitrendipine. The remaining component of calcium entry into the IMR-32 cells is due to calcium flux through N-type calcium channels. Intracellular calcium concentrations are measured using the fluorescent calcium indicator Indo-1. The effect of drug concentration on calcium uptake is studied.
The IMR-32 cell line was obtained from the American Type Culture Collection (Rockville, Md.). Cells were grown in Eagle's Minimum Essential Medium with Earle's salts supplemented with 10% fetal bovine serum, 2 mM L-Gln and antibiotic/antimycotic mixture (Gibco). At approximately 80% confluency, differentiation was induced by the addition of 1 mM dibutyryl cAMP and 2.5 μM bromodeoxyuridine to the medium. After 7 to 13 days of differentiation, cells were detached using 0.5 mM EDTA and loaded with 5 μM Indo-1 acetoxymethyl ester (Molecular Probes, Eugene, Oreg.) at 30° C. for 45 minutes Loaded cells were washed twice, resuspended (˜10^7 cells/mL) in assay buffer (10 mM HEPES/Tris pH 7.4 in Hank's Balanced Salt Solution without bicarbonate or phenol red containing 0.5% bovine serum albumin) and kept on ice until use. Fluorescence measurements were carried out in a Photon Technology International (PTI, South Brunswick, N.J.) Model RF-F3004 spectrofluorometer with dual emission monochromators using excitation at 350 nm and emission at 400 and 490 nm. The instrument was equipped with a thermostated cuvette holder with stirring capabilities, as well as with a computer-controlled pump which allowed for reagent addition during measurement. Instrument control and data collection was done by PTI's OSCAR software running on an IBM compatible computer. Different concentrations of the test compounds (60 μL in dimethyl sulfoxide) were added to 5.94 mL of assay buffer containing approximately 3×10^6 loaded cells, and 5 μM nitrendipine (in 30 μL EtOH) to block L-type Ca^2+ channels. Samples were incubated for 10 minutes at 30° C. and then aliquoted into three 10×10 mm disposable acrylic cuvettes. Emission signals at 400 and 490 nm were acquired from each cuvette at 30° C. for 50 seconds. At 20 seconds after the start of reading, cells were depolarized by the addition of 160 μL of stimulation solution (1 M KCl, 68 mM CaCl2) to the cuvette via the computer-controlled pump. Ratio of dual emission signals (400 nm/490 nm), which is proportional to intracellular Ca^2+ concentration, was plotted against time, and the difference between maximal response after stimulation and basal value (before stimulation) was determined. Values obtained in this way were plotted as a function of drug concentration. IC50 values of test compounds were calculated by fitting a 4-parameter logistic function to the data using the least squares method.

T1 sequence (Q00975 whole entry): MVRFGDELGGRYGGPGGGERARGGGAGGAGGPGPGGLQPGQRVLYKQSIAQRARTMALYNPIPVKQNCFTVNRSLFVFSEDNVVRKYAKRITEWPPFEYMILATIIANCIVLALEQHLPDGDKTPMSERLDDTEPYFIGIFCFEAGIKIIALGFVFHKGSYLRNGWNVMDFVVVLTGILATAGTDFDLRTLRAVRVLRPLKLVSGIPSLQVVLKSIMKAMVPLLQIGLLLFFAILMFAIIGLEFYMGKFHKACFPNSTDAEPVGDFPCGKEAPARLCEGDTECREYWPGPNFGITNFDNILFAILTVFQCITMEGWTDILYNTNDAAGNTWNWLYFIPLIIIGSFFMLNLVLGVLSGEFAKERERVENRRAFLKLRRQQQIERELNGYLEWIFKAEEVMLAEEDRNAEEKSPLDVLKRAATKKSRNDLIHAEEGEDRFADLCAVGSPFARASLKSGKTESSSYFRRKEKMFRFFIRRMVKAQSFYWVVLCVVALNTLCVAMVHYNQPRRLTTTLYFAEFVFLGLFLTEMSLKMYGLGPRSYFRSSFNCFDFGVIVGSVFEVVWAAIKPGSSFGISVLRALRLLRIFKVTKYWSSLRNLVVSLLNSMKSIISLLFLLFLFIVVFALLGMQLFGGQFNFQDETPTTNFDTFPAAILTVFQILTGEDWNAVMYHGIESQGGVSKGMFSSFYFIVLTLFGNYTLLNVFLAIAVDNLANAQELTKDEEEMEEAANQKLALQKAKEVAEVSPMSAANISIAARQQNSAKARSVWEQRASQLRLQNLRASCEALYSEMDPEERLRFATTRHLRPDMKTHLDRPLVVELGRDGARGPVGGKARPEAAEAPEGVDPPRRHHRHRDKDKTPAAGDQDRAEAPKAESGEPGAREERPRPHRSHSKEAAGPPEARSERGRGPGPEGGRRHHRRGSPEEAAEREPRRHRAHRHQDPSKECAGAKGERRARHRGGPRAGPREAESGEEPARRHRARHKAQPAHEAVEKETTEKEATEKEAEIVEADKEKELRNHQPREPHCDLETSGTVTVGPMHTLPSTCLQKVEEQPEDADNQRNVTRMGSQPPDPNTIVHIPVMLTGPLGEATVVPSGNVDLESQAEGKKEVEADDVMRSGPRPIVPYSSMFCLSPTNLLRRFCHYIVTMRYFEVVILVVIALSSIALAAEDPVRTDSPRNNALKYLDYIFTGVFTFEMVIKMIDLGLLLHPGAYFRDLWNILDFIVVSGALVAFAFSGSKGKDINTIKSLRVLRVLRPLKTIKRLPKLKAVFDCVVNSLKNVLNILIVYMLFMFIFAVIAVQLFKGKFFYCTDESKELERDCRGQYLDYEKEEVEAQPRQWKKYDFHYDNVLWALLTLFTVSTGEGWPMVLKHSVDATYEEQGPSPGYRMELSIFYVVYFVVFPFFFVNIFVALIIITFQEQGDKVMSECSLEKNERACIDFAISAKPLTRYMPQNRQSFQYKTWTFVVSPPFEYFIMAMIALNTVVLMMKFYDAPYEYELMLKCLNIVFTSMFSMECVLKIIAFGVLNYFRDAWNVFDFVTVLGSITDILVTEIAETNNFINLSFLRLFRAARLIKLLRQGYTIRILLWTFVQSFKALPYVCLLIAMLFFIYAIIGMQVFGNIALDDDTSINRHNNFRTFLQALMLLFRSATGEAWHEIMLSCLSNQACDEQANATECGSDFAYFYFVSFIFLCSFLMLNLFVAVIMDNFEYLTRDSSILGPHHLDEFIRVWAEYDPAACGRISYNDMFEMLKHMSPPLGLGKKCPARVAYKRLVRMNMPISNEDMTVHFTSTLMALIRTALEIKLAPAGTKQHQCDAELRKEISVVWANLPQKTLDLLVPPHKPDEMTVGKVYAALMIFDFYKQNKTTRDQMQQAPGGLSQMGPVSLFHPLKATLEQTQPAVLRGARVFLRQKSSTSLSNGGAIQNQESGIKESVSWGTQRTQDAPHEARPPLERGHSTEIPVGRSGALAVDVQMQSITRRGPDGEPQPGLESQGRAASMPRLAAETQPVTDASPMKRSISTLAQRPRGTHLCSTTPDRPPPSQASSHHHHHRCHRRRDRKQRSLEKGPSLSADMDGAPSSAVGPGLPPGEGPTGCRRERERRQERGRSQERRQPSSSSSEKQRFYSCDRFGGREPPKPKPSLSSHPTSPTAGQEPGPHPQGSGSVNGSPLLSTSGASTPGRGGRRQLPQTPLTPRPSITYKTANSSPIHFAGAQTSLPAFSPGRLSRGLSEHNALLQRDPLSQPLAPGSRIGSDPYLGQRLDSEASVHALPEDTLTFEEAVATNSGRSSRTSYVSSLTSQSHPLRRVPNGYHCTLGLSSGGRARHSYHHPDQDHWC
T1 sequence (P54289 25-956 partner limits assumed): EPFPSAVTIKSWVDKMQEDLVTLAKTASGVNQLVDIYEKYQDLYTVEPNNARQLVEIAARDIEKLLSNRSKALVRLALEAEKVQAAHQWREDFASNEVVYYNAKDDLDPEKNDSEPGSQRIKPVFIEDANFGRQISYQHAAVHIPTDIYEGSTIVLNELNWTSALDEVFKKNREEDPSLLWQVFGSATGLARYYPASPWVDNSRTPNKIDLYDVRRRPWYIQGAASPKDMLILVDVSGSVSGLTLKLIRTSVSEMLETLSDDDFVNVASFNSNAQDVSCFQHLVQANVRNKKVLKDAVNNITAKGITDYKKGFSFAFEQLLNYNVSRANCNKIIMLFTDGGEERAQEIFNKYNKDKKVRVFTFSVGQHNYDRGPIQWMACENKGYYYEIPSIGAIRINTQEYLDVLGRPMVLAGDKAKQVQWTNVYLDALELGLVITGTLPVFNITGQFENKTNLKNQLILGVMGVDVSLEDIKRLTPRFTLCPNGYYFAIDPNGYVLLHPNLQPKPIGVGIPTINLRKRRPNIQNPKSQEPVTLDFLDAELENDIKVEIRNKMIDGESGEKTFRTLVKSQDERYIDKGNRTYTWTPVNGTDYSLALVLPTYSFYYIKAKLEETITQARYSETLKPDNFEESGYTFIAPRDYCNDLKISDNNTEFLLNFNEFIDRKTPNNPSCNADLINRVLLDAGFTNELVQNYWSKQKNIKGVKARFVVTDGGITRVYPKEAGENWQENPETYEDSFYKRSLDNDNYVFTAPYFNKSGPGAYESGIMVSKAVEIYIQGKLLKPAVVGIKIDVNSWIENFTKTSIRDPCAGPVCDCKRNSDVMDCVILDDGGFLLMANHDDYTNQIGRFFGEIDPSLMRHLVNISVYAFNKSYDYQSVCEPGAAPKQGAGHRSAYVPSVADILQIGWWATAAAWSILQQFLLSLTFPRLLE
T1 sequence (P54289 957-1103 partner limits assumed): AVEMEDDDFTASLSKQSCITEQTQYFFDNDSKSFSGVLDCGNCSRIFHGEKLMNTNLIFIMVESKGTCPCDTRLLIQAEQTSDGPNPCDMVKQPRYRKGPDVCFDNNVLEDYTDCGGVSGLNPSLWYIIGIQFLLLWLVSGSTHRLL
T1 sequence (P54284 whole entry partner): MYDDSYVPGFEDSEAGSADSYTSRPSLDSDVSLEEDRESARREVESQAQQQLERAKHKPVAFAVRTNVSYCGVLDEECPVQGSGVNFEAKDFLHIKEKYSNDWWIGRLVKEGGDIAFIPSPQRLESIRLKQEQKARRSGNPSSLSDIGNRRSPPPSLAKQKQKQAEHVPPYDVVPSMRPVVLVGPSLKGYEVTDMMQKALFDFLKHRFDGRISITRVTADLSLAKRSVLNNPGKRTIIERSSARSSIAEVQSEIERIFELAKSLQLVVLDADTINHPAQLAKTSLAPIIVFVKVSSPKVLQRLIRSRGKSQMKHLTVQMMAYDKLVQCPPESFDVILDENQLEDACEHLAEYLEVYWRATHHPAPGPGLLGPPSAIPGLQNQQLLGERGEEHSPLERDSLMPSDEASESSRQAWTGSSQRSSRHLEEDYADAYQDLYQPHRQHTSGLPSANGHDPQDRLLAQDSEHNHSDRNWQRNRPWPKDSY

Structure (SMILES): CC(C)(C)NC(=O)[C@H](Cc1ccc(OCc2ccccc2)cc1)NC(=O)[C@H](Cc1cccnc1)NC1C=CCCC1 (stereo partly drawn) [Example 4, [S—(R*,R*)]—N-[2-(4-Benzyloxy-phenyl)-1-tert-butylcarbamoyl-ethyl]-2-(cyclohex-2-enylamino)-3-pyridin-3-yl-propionamide]
- DBA/2 mice % protection (dose) [1]: 60% @ 30 mg/kg
- IC50 [2]: 1 µM

Structure (SMILES): CC(C)(C)NC(=O)[C@H](Cc1ccc(OCc2ccccc2)cc1)NC(=O)[C@H](Cc1ccncc1)NC1C=CCCC1 (stereo partly drawn) [Example 2, [S-(R*,R*)]—N-[2-(4-Benzyloxy-phenyl)-1-tert-butylcarbamoyl-ethyl]-2-(cyclohex-2-enylamino)-3-pyridin-4-yl-propionamide]
- IC50 [2]: 1.3 µM

Structure (SMILES): CC(C)N[C@@H](Cc1c[nH]cn1)C(=O)N[C@@H](Cc1ccc(OCc2ccccc2)cc1)C(=O)NC(C)(C)C (relative stereo) [Example 9, [S—(R*,R*)]N-[2-(4-Benzyloxy-phenyl)-1-tert-butylcarbamoyl-ethyl]-2-(1-methylethyl-amino)-3-(1H-imidazol-4-yl)-propionamide]
- IMR-32 % of Blockade @ μM ([2]; @ 1 μM): 11%
- IMR-32 % of Blockade @ μM ([2]; @ 10 μM): 55%

Structure (SMILES): CC(C)CCN[C@@H](Cc1cscn1)C(=O)NC(Cc1ccc(OCc2ccccc2)cc1)C(=O)NC(C)(C)C (stereo in doubt) [Example 5, [S—(R*,R*)]—N-[2-(4-Benzyloxy-phenyl)-1-tert-butylcarbamoyl-ethyl]-2-(3-methyl-butylamino)-3-thiazol-4-yl-propionamide]
- DBA/2 mice % protection (dose) [1]: 100% @ 30 mg/kg
- IMR-32 % of Blockade @ μM ([2]; @ 1 μM): 79%
- IMR-32 % of Blockade @ μM ([2]; @ 10 μM): 97%

Structure (SMILES): CC(C)(C)NC(=O)[C@H](Cc1ccc(OCc2ccccc2)cc1)NC(=O)[C@H](Cc1ccncc1)NC1C=CCCC1 (stereo partly drawn) (as salt: HCl) [Example 2, [S-(R*,R*)]—N-[2-(4-Benzyloxy-phenyl)-1-tert-butylcarbamoyl-ethyl]-2-(cyclohex-2-enylamino)-3-pyridin-4-yl-propionamide]
- melting point: 163 to 164 °C

Structure (SMILES): CC(C)(C)NC(=O)[C@H](Cc1ccc(OCc2ccccc2)cc1)NC(=O)[C@H](Cc1c[nH]cn1)NCC1CCCCC1 [Example 8, [S—(R*,R*)]—N-[2-(4-Benzyloxy-phenyl)-1-tert-butylcarbamoyl-ethyl]-2-(cyclohexylmethyl-amino)-3-(1H-imidazol-4-yl)-propionamide]
- IC50 [2]: 0.67 µM

Structure (SMILES): CC(C)(C)NC(=O)[C@H](Cc1ccc(OCc2ccccc2)cc1)NC(=O)[C@H](Cc1cscn1)NC1CCCCC1 (relative stereo) [Example 7, [S—(R*,R*)]-N-[2-(4-Benzyloxy-phenyl)-1-tert-butylcarbamoyl-ethyl]-2-cyclohexylamino-3-thiazol-4-yl-propionamide]
- IMR-32 % of Blockade @ μM ([2]; @ 1 μM): 67%
- IMR-32 % of Blockade @ μM ([2]; @ 10 μM): 95%

Structure (SMILES): CC(C)(C)NC(=O)[C@H](Cc1ccc(OCc2ccccc2)cc1)NC(=O)[C@H](Cc1c[nH]cn1)NCC1CCCCC1 (as salt: salt) [Example 8, [S—(R*,R*)]—N-[2-(4-Benzyloxy-phenyl)-1-tert-butylcarbamoyl-ethyl]-2-(cyclohexylmethyl-amino)-3-(1H-imidazol-4-yl)-propionamide]
- melting point: 163 to 165 °C

Structure (SMILES): CC(C)CCN[C@@H](Cc1ccncc1)C(=O)N[C@@H](Cc1ccc(OCc2ccccc2)cc1)C(=O)NC(C)(C)C [Example 1, [S—(R*,R*)]—N-[2-(4-Benzyloxy-phenyl)-1-tert-butylcarbamoyl-ethyl]-2-(3-methyl-butylamino)-3-pyridin-4-yl-propionamide]
- IC50 [2]: 0.4 µM

Structure (SMILES): CC(C)(C)NC(=O)[C@H](Cc1ccc(OCc2ccccc2)cc1)NC(=O)[C@H](Cc1cscn1)NC1C=CCCC1 (stereo partly drawn) (as salt: HCl) [Example 6, [S—(R*,R*)]—N-[2-(4-Benzyloxy-phenyl)-1-tert-butylcarbamoyl-ethyl]-2-(cyclohex-2-enylamino)-3-thiazol-4-yl-propionamide]
- melting point: 243 to 244 °C

Structure (SMILES): CC(C)CCN[C@@H](Cc1cccnc1)C(=O)NC(Cc1ccc(OCc2ccccc2)cc1)C(=O)NC(C)(C)C (stereo in doubt) [Example 3, [S-(R*,R*)]—N-[2-(4-Benzyloxy-phenyl)-1-tert-butylcarbamoyl-ethyl]-2-(3-methyl-butylamino)-3-pyridin-3-yl-propionamide]
- DBA/2 mice % protection (dose) [1]: 80% @ 30 mg/kg
- IC50 [2]: 0.77 µM

Structure (SMILES): CC(C)(C)NC(=O)[C@H](Cc1ccc(OCc2ccccc2)cc1)NC(=O)[C@H](Cc1cscn1)NC1C=CCCC1 (stereo partly drawn) [Example 6, [S—(R*,R*)]—N-[2-(4-Benzyloxy-phenyl)-1-tert-butylcarbamoyl-ethyl]-2-(cyclohex-2-enylamino)-3-thiazol-4-yl-propionamide]
- IC50 [2]: 1.1 µM
